Test results reported in PubChem BioAssay AID248 (DTP/NCI, 2004).
Values joined by “and” are separate entries in the source; they are usually repeats but may differ in a detail not shown here. Identical values can stand only once. Toxic doses and inconclusive results are not listed. No stated cut-off is given here; in the data, active means T/C of 150% or more; inactive means T/C below 125%.

Test system: L1210 leukemia ip in BDF1 mice, survival T/C
Test: NCI In Vivo Anticancer Drug Screen. Data for tumor model L1210 Leukemia (intraperitoneal) in B6D2F1 (BDF1) mice
Details: endpoint: mean survival time, higher = longer survival
Summary of the method: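 Mice bearing the transplanted tumor received compound or vehicle. Survival of the treated group was divided by that of the vehicle-treated control group to give the ratio.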

[1] = dose: 100.0 mg/kg/injection, schedule: Q01DX009 (ip), vehicle: saline with Tween-80
[2] = dose: 200.0 mg/kg/injection, schedule: Q01DX009 (ip), vehicle: saline with Tween-80
[3] = dose: 100.0 mg/kg/injection, schedule: Q04DX003 (ip), vehicle: Klucel (hydroxypropylcellulose) (HPC)
[4] = dose: 200.0 mg/kg/injection, schedule: Q04DX003 (ip), vehicle: Klucel (hydroxypropylcellulose) (HPC)
[5] = dose: 400.0 mg/kg/injection, schedule: Q04DX003 (ip), vehicle: Klucel (hydroxypropylcellulose) (HPC)
[6] = dose: 25.0 mg/kg/injection, schedule: Q01DX009 (ip), vehicle: saline
[7] = dose: 50.0 mg/kg/injection, schedule: Q01DX009 (ip), vehicle: saline
[8] = dose: 100.0 mg/kg/injection, schedule: Q01DX009 (ip), vehicle: saline
[9] = dose: 100.0 mg/kg/injection, schedule: Q04DX003 (ip), vehicle: saline
[10] = dose: 100.0 mg/kg/injection, schedule: Q01DX009 (ip), vehicle: Klucel (hydroxypropylcellulose) (HPC)
[11] = dose: 100.0 mg/kg/injection, schedule: Q01DX001 (ip), vehicle: saline
[12] = dose: 200.0 mg/kg/injection, schedule: Q01DX001 (ip), vehicle: saline
[13] = dose: 200.0 mg/kg/injection, schedule: Q04DX003 (ip), vehicle: saline
[14] = dose: 400.0 mg/kg/injection, schedule: Q04DX003 (ip), vehicle: saline
[15] = dose: 100.0 mg/kg/injection, schedule: Q04DX002 (ip), vehicle: saline
[16] = dose: 200.0 mg/kg/injection, schedule: Q04DX002 (ip), vehicle: saline
[17] = dose: 400.0 mg/kg/injection, schedule: Q04DX002 (ip), vehicle: saline

Measured: T/C

O=C1CCC(c2ccc3c(c2)CCCC3)O1 (stereo not given)
inactive: dose: 50.0 mg/kg/injection, schedule: Q01DX009 (ip), vehicle: saline with Tween-80 97 % of control | [1] 95 % of control | dose: 100.0 mg/kg/injection, schedule: Q04DX003 (ip), vehicle: saline with Tween-80 105 % of control | [2] 90 % of control | dose: 200.0 mg/kg/injection, schedule: Q04DX003 (ip), vehicle: saline with Tween-80 105 % of control | dose: 400.0 mg/kg/injection, schedule: Q04DX003 (ip), vehicle: saline with Tween-80 95 % of control

O=[N+]([O-])c1cc(Cl)cc2c1nc(NCCCO)c1ccccc12
inactive: [3] 105 % of control | [4] 108 % of control | [5] 102 % of control

[N-]=[N+]=c1c(=O)c2ccccc2c1=O
inactive: [1] 103 % of control | [2] 97 % of control | dose: 400.0 mg/kg/injection, schedule: Q01DX009 (ip), vehicle: saline with Tween-80 96 % of control

CCC12CCC(=O)C=C1CCCC2=O (stereo not given)
inactive: [6] 100 % of control | [7] 97 % of control | [8] 90 % of control

OCCN1CCC(CCCC2CCNCC2)CC1
inactive: dose: 10.0 mg/kg/injection, schedule: Q01DX Z (ip), vehicle: saline 97 % of control | [6] 102 % of control | dose: 25.0 mg/kg/injection, schedule: Q04DX003 (ip), vehicle: saline 111 % of control | dose: 30.0 mg/kg/injection, schedule: Q01DX Z (ip), vehicle: saline 102 % of control | [7] 96 % of control | dose: 50.0 mg/kg/injection, schedule: Q04DX003 (ip), vehicle: saline 98 % of control | [8] 91 % of control | [9] 108 % of control

CCOc1ccc(Br)cc1C1N(Cc2ccc(OC)cc2)CCCN1Cc1ccc(OC)cc1
inactive: dose: 100.0 mg/kg/injection, schedule: Q01DX001 (ip), vehicle: carboxymethylcellulose (CMC) 96 % of control | dose: 200.0 mg/kg/injection, schedule: Q01DX001 (ip), vehicle: carboxymethylcellulose (CMC) 93 % of control | dose: 400.0 mg/kg/injection, schedule: Q01DX001 (ip), vehicle: carboxymethylcellulose (CMC) 91 % of control

Cc1ccccc1NC(=S)N(C)C
inactive: dose: 25.0 mg/kg/injection, schedule: Q01DX009 (ip), vehicle: Klucel (hydroxypropylcellulose) (HPC) 103 % of control | dose: 25.0 mg/kg/injection, schedule: Q04DX003 (ip), vehicle: Klucel (hydroxypropylcellulose) (HPC) 98 % of control | dose: 50.0 mg/kg/injection, schedule: Q01DX009 (ip), vehicle: Klucel (hydroxypropylcellulose) (HPC) 104 % of control | dose: 50.0 mg/kg/injection, schedule: Q04DX003 (ip), vehicle: Klucel (hydroxypropylcellulose) (HPC) 91 % of control | [10] 103 % of control | [3] 95 % of control and 103 % of control

CNC(=S)n1cnc(N)n1
inactive: dose: 50.0 mg/kg/injection, schedule: Q01DX001 (ip), vehicle: saline 107 % of control | [11] 101 % of control | [12] 107 % of control

CC(=O)Nc1c(Cl)cc(I)cc1Cl
inactive: [10] 103 % of control | dose: 200.0 mg/kg/injection, schedule: Q01DX009 (ip), vehicle: Klucel (hydroxypropylcellulose) (HPC) 103 % of control | dose: 400.0 mg/kg/injection, schedule: Q01DX009 (ip), vehicle: Klucel (hydroxypropylcellulose) (HPC) 97 % of control

Cc1cccc(C)c1NC(=O)NCCCl
inactive: dose: 50.0 mg/kg/injection, schedule: Q01DX001 (ip), vehicle: Klucel (hydroxypropylcellulose) (HPC) 97 % of control | dose: 100.0 mg/kg/injection, schedule: Q01DX001 (ip), vehicle: Klucel (hydroxypropylcellulose) (HPC) 108 % of control | [9] 105 % of control | dose: 200.0 mg/kg/injection, schedule: Q01DX001 (ip), vehicle: Klucel (hydroxypropylcellulose) (HPC) 101 % of control | [13] 97 % of control | [14] 100 % of control

O=C(O)c1cc(-c2ccccc2)nc2c([N+](=O)[O-])cccc12
inactive: dose: 75.0 mg/kg/injection, schedule: Q01DX001 (ip), vehicle: acetone 95 % of control | dose: 150.0 mg/kg/injection, schedule: Q01DX001 (ip), vehicle: acetone 92 % of control | dose: 300.0 mg/kg/injection, schedule: Q01DX001 (ip), vehicle: acetone 108 % of control

CC(C)OP(=O)(CCCCCCCCCCP(=O)(OC(C)C)OC(C)C)OC(C)C
inactive: [15] 113 % of control | [16] 102 % of control | [17] 98 % of control

O=C(Nc1ccc2ccccc2c1)C1CC1
inactive: dose: 100.0 mg/kg/injection, schedule: Q04DX002 (ip), vehicle: Klucel (hydroxypropylcellulose) (HPC) 100 % of control | dose: 200.0 mg/kg/injection, schedule: Q04DX002 (ip), vehicle: Klucel (hydroxypropylcellulose) (HPC) 107 % of control | dose: 400.0 mg/kg/injection, schedule: Q04DX002 (ip), vehicle: Klucel (hydroxypropylcellulose) (HPC) 115 % of control

O=C1CCc2c1cc(O)c1ccc(S(=O)(=O)O)cc21
inactive: dose: 5.0 mg/kg/injection, schedule: Q01DX001 (ip), vehicle: saline 104 % of control | dose: 10.0 mg/kg/injection, schedule: Q01DX001 (ip), vehicle: saline 106 % of control | dose: 20.0 mg/kg/injection, schedule: Q01DX001 (ip), vehicle: saline 104 % of control | dose: 40.0 mg/kg/injection, schedule: Q01DX001 (ip), vehicle: saline 102 % of control

CSc1ccc(OCC2CO2)cc1C (stereo not given)
inactive: [15] 96 % of control | [16] 111 % of control | [17] 104 % of control

CC(CCC(=O)O)C1CCC2C3CCC4CC(OC=O)CCC4(C)C3CC(=O)C12C (stereo not given)
inactive: dose: 100.0 mg/kg/injection, schedule: Q01DX001 (ip), vehicle: saline with Tween-80 98 % of control | dose: 200.0 mg/kg/injection, schedule: Q01DX001 (ip), vehicle: saline with Tween-80 95 % of control | dose: 400.0 mg/kg/injection, schedule: Q01DX001 (ip), vehicle: saline with Tween-80 101 % of control

CCCN(CCC)CC(=O)N1CC(=O)Nc2ccccc21
inactive: dose: 25.0 mg/kg/injection, schedule: Q01DX009 (ip), vehicle: acetone 98 % of control | dose: 50.0 mg/kg/injection, schedule: Q01DX009 (ip), vehicle: acetone 96 % of control | dose: 100.0 mg/kg/injection, schedule: Q01DX009 (ip), vehicle: acetone 95 % of control | dose: 100.0 mg/kg/injection, schedule: Q04DX003 (ip), vehicle: acetone 103 % of control | dose: 200.0 mg/kg/injection, schedule: Q04DX003 (ip), vehicle: acetone 103 % of control

CC(=O)Nc1ccc(S(=O)(=O)Cl)cc1Cl
inactive: dose: 75.0 mg/kg/injection, schedule: Q01DX001 (ip), vehicle: saline 96 % of control | dose: 150.0 mg/kg/injection, schedule: Q01DX001 (ip), vehicle: saline 98 % of control | dose: 300.0 mg/kg/injection, schedule: Q01DX001 (ip), vehicle: saline 99 % of control

NCC(=O)c1ccc(O)c(O)c1
inactive: [11] 101 % of control | [8] 122 % of control | [9] 97 % of control | dose: 175.0 mg/kg/injection, schedule: Q01DX Z (ip), vehicle: methylcellulose (MC) 115 % of control | [12] 93 % of control | [13] 97 % of control | dose: 260.0 mg/kg/injection, schedule: Q01DX Z (ip), vehicle: carboxymethylcellulose (CMC) 112 % of control | dose: 260.0 mg/kg/injection, schedule: Q01DX Z (ip), vehicle: methylcellulose (MC) 121 % of control | dose: 270.0 mg/kg/injection, schedule: Q01DX Z (ip), vehicle: methylcellulose (MC) 117 % of control | dose: 400.0 mg/kg/injection, schedule: Q01DX001 (ip), vehicle: saline 104 % of control | dose: 400.0 mg/kg/injection, schedule: Q01DX009 (ip), vehicle: saline 124 % of control | dose: 400.0 mg/kg/injection, schedule: Q01DX Z (ip), vehicle: methylcellulose (MC) 112 % of control | [14] 95 % of control | dose: 600.0 mg/kg/injection, schedule: Q01DX Z (ip), vehicle: carboxymethylcellulose (CMC) 116 % of control | dose: 600.0 mg/kg/injection, schedule: Q01DX Z (ip), vehicle: methylcellulose (MC) 114 % of control | dose: 1344.0 mg/kg/injection, schedule: Q01DX Z (ip), vehicle: carboxymethylcellulose (CMC) 92 % of control

COc1ccc(OCC(=O)c2ccccc2)cc1
inactive: [3] 102 % of control | [4] 98 % of control | [5] 98 % of control
